Values after ≈ are worked out from the molar mass of the structure shown.
Key:
[1] = system: U-937; assay: Anticancer activity against human U-937 cells assessed as cell growth inhibition; format: functional, cell-based
[2] = system: HT-29; assay: Anticancer activity against human HT-29 cells assessed as cell growth inhibition; format: functional, cell-based
[3] = system: Jurkat; assay: Anticancer activity against human Jurkat T cells assessed as cell growth inhibition; format: functional, cell-based
[4] = system: Staphylococcus aureus; assay: Antibacterial activity against methicillin resistant Staphylococcus aureus incubated for 24 hrs by broth microdilution method; format: functional
[5] = biological target: Prostaglandin G/H synthase 1 (Homo sapiens, UniProt P23219); assay: Inhibition of COX-1 (unknown origin) using arachidonic acid as substrate assessed as PGH2 level preincubated for 5 mins followed by substrate addition and measured after 1 min by UHPLC-MS/MS analysis
Prostaglandin G/H synthase 1, sequence (P23219 whole entry): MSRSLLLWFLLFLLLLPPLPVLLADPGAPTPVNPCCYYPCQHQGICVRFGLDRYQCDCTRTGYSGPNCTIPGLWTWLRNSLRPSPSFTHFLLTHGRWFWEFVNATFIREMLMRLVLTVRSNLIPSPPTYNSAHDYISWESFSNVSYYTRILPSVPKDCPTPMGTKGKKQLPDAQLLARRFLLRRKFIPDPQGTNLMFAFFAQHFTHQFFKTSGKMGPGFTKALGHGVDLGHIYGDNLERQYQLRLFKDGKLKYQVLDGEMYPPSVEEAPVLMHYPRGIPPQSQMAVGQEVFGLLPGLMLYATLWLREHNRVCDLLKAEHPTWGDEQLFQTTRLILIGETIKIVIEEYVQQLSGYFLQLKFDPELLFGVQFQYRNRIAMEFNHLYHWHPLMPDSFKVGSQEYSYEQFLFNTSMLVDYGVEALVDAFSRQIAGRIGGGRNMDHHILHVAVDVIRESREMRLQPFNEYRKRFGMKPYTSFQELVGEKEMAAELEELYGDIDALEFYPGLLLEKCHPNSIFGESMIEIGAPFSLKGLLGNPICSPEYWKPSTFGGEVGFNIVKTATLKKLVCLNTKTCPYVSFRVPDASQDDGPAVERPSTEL

[6] = Inhibition of Saccharomyces alpha-glucosidase using p-nitrophenyl-alpha-D-glucopyranoside as substrate assessed as substrate hydrolysis incubated for 15 mins by spectrophotometer analysis; parameters: species or system Saccharomyces sp.
[7] = system: Enterococcus; assay: Antibacterial activity against vancomycin resistant Enterococcus incubated for 24 hrs by broth microdilution method; format: functional
[8] = system: Blastomyces dermatitidis; assay: Antifungal activity against Blastomyces dermatitidis; format: functional
[9] = system: B16; assay: Anticancer activity against mouse B16 cells assessed as cell growth inhibition; format: functional, cell-based
[10] = system: Histoplasma capsulatum; assay: Antifungal activity against Histoplasma capsulatum; format: functional
[11] = system: B16; assay: Antitumor activity against mouse B16 cells implanted in mouse assessed as inhibition of lung tumor formation at 5 mg/kg, po measured after 10 days relative to control; format: functional; parameters: scale not given: the % may be the effect or the level left; details: time 10 day

In the case of `COc1ccc([C@H]2CC[C@H](C)[C@H]3CCC(SC)(SC)[C@H](O)N23)cc1`, the IC50 [1] is reported as 5 µM.

Work on `COc1ccc(C[N+]2=CC3(CCC2)CSC2(C=[N+](Cc4ccc(OC)cc4)CCC2)C3)cc1` (centres undefined) yielded an EC50 [2] of 2800 nM and an EC50 [3] of 1800 nM.

`C[C@@H]1CC[C@@H](c2ccoc2)N2[C@H]1CC[C@@]1(CS[C@]3(CC[C@H]4[C@H](C)CC[C@@H](c5ccoc5)N4[C@@H]3O)C1)[C@H]2O` showed an IC50 [1] of 2.5 µM.

With `C1=[N+](CCCCc2ccccc2)CCCC12CCCO2` (centres undefined) the EC50 [2] was 87000 nM and the EC50 [3] was 38000 nM.

`NCC[C@H](O)C(=O)N[C@@H]1C[C@H](N)[C@@H](O[C@H]2O[C@H](CN)CC[C@H]2N)[C@H](O)[C@H]1O[C@H]1O[C@H](CO)[C@@H](O)[C@H](N)[C@H]1O` [ARBEKACIN] gave an MIC [4] of 0.5 µg/mL (≈ 0.905 µM).

In the case of `C[C@H]1CC[C@H](c2ccoc2)N2[C@@H]1CC[C@]1(CS[C@@]3(CC[C@@H]4[C@@H](C)CC[C@H](c5ccoc5)N4[C@H]3O)C1)[C@@H]2O`, the IC50 [1] is reported as 5 µM.

In the case of `CC1CCC(c2ccoc2)N2C1CCC1(CSC3(CCC4C(C)CCC(c5ccoc5)N4C3O)C1)C2O` (centres undefined), the EC50 [2] is reported as 547 nM and the EC50 [3] is reported as 263 nM.

With `CSC1(C)CCC2C(C)CCC(c3ccccc3)N2C1O` (racemic) the IC50 [1] was 3 µM.

`CSC1(SC)CC[C@H]2[C@H](C)CC[C@@H](c3ccccc3)N2[C@@H]1O` showed an IC50 [1] of 10 µM.

`CSC1(SC)CCC2C(C)CCC(c3ccccc3)N2C1O` (racemic) gave an IC50 [1] of 5 µM.

Work on `FC(F)(F)c1ccc(C[N+]2=CC3(CCC2)CSC2(C=[N+](Cc4ccc(C(F)(F)F)cc4)CCC2)C3)cc1` (centres undefined) yielded an EC50 [2] of 2400 nM and an EC50 [3] of 1800 nM.

Work on `C[C@H]1CC[C@H](c2ccoc2)N2C[C@]3(CC[C@H]12)CS[C@]1(CC[C@@H]2[C@@H](C)CC[C@H](c4ccoc4)N2[C@H]1O)C3` yielded an IC50 [1] of 5 µM.

With `COc1ccc([C@H]2CC[C@H](C)[C@H]3CC[C@](C)(SC)[C@H](O)N23)cc1` the IC50 [1] was 5 µM.

Work on `C[C@H]1CC[C@H](c2ccccc2)N2[C@@H]1CC[C@@](C)(Sc1ccccc1)[C@@H]2O` yielded an IC50 [1] of 2.5 µM.

For `CS[C@]1(C)CC[C@@H]2[C@@H](C)CC[C@H](c3ccc(F)cc3)N2[C@H]1O`, the IC50 [1] was 1.25 µM.

With `C[C@@H]1CC[C@@H](c2ccoc2)N2[C@H]1CC[C@]1(CS[C@]3(CC[C@H]4[C@H](C)CC[C@@H](c5ccoc5)N4[C@@H]3O)C1)[C@H]2O` the IC50 [1] was 1.25 µM.

Compound `CS[C@]1(C)CC[C@@H]2[C@@H](C)CC[C@H](c3ccccc3)N2[C@H]1O` has an IC50 [1] of 0.625 µM.

`CC1CCC(c2ccccc2)N2C1CCC(C)(Sc1ccccc1)C2O` (racemic) showed an IC50 [1] of 5 µM.

With `C[C@H]1CC[C@H](c2ccoc2)N2[C@@H]1CC[C@]1(CS[C@]3(CC[C@@H]4[C@@H](C)CC[C@H](c5ccoc5)N4[C@H]3O)C1)[C@@H]2O` the IC50 [1] was 5 µM.

For `C1=[N+](Cc2ccccc2)CCCC12CSC1(C=[N+](Cc3ccccc3)CCC1)C2` (centres undefined), the EC50 [2] was 2300 nM and the EC50 [3] was 1600 nM.

`CS[C@@]1(C)CC[C@@H]2[C@@H](C)CC[C@H](c3ccc(F)cc3)N2[C@H]1O` showed an IC50 [1] of 5 µM.

Work on `CS[C@@]1(C)CC[C@@H]2[C@@H](C)CC[C@H](c3ccccc3)N2[C@H]1O` yielded an IC50 [1] of 5 µM.

For `C[C@H]1CC[C@H](c2ccoc2)N2[C@@H]1CC[C@@]1(CS[C@@]3(CC[C@@H]4[C@@H](C)CC[C@H](c5ccoc5)N4[C@H]3O)C1)[C@@H]2O`, the IC50 [1] was 2.5 µM.

In the case of `C#CC[C@@]1(SC)CC[C@@H]2[C@@H](C)CC[C@H](c3ccccc3)N2[C@H]1O`, the IC50 [1] is reported as 2.5 µM.

`C#CC[C@]1(SC)CC[C@@H]2[C@@H](C)CC[C@H](c3ccccc3)N2[C@H]1O` showed an IC50 [1] of 2.5 µM.

Compound `C[C@H]1CC[C@H](c2ccccc2)N2[C@@H]1CC[C@](C)(Sc1ccccc1)[C@@H]2O` has an IC50 [1] of 5 µM.

In the case of `C[C@@H]1CC[C@@H](c2ccccc2)N2[C@@H](O)[C@@](C)(Sc3ccccc3)CC[C@@H]12`, the IC50 [1] is reported as 2.5 µM.

For `C=C1C=[N+](CCCCc2ccccc2)CCC1`, the EC50 [2] was 45000 nM and the EC50 [3] was 17000 nM.

Work on `CSC1(SC)CC[C@@H]2[C@@H](C)CC[C@H](c3ccc(F)cc3)N2[C@H]1O` yielded an IC50 [1] of 5 µM.

In the case of `C/C=C/[S+]([O-])SC1SC(O)C(C)C1C` (centres undefined), the IC50 [5] is reported as 52 nM and the IC50 [6] is reported as 710 nM.

For `C1=[N+](CCCCc2ccccc2)CCCC12CSC1(C=[N+](CCCCc3ccccc3)CCC1)C2` (centres undefined), the EC50 [2] was 2100 nM and the EC50 [3] was 1200 nM.

For `COc1ccc([C@H]2CC[C@H](C)[C@H]3CC[C@@](C)(SC)[C@H](O)N23)cc1`, the IC50 [1] was 1.25 µM.

`C[C@@H]1CC[C@@H](c2ccoc2)N2[C@H]1CC[C@]1(CS[C@@]3(CC[C@H]4[C@H](C)CC[C@@H](c5ccoc5)N4[C@@H]3O)C1)[C@H]2O` showed an IC50 [1] of 2.5 µM.

Work on `C[C@H]1CC[C@H](c2ccoc2)N2[C@@H]1CC[C@@]1(CS[C@]3(CC[C@@H]4[C@@H](C)CC[C@H](c5ccoc5)N4[C@H]3O)C1)[C@@H]2O` yielded an IC50 [1] of 2.5 µM.

`CSC1(SC)CC[C@@H]2[C@@H](C)CC[C@H](c3ccccc3)N2[C@H]1O` gave an IC50 [1] of 1.25 µM.

For `CN[C@H](CC(C)C)C(=O)N[C@H]1C(=O)N[C@@H](CC(N)=O)C(=O)N[C@H]2C(=O)N[C@H]3C(=O)N[C@H](C(=O)N[C@H](C(=O)O)c4cc(O)cc(O)c4-c4cc3ccc4O)[C@H](O)c3ccc(c(Cl)c3)Oc3cc2cc(c3O[C@@H]2O[C@H](CO)[C@@H](O)[C@H](O)[C@H]2O[C@H]2C[C@](C)(N)[C@H](O)[C@H](C)O2)Oc2ccc(cc2Cl)[C@H]1O` [VANCOMYCIN], the MIC [7] was 0.5 µg/mL (≈ 0.345 µM).

With `C1=[N+](CCCCc2ccccc2)CCCC12CCC2` the EC50 [2] was 43000 nM and the EC50 [3] was 9600 nM.

For `C=CC[C@]1(SC)CC[C@@H]2[C@@H](C)CC[C@H](c3ccc(F)cc3)N2[C@H]1O`, the IC50 [1] was 5 µM.

Compound `C[C@@H]1CC[C@@H](c2ccoc2)N2[C@H]1CC[C@@]1(CS[C@@]3(CC[C@H]4[C@H](C)CC[C@@H](c5ccoc5)N4[C@@H]3O)C1)[C@H]2O` has an IC50 [1] of 5 µM, an Activity [8] of 100 µg/mL and an MIC [7] of 2 µg/mL (≈ 3.8 µM). For the same compound, the MIC [4] was 1 µg/mL (≈ 1.9 µM), the IC50 [9] was 87 nM and the Activity [10] was 100 µg/mL.

`C1=[N+](CCCCc2ccccc2)CCCC12CCCS2` (centres undefined) showed an EC50 [2] of 12000 nM and an EC50 [3] of 6300 nM.

`Cc1onc(-c2ccccc2)c1C(=O)N[C@@H]1C(=O)N2[C@@H]1SC(C)(C)[C@@H]2C(=O)O` [OXACILLIN] gave an MIC [4] of 0.06 µg/mL (≈ 0.149 µM).

For `C#CCC1(SC)CCC2C(C)CCC(c3ccccc3)N2C1O` (racemic), the IC50 [1] was 5 µM.

`CCn1cc(C(=O)O)c(=O)c2cc(F)c(N3CCNCC3)cc21` [NORFLOXACIN] showed an MIC [7] of 4 µg/mL (≈ 12.5 µM) and an MIC [4] of 0.5 µg/mL (≈ 1.57 µM).

With `C[C@@H]1CC[C@@H](c2ccoc2)N2C[C@@]3(CC[C@@H]12)CS[C@]1(CC[C@H]2[C@H](C)CC[C@@H](c4ccoc4)N2[C@@H]1O)C3` [6-HYDROXYTHIONUPHLUTINE B] the IC50 [9] was 360 nM.

In the case of `C[C@@H]1CC[C@@H](c2ccoc2)N2C[C@@]3(CC[C@@H]12)CS[C@@]1(CC[C@H]2[C@H](C)CC[C@@H](c4ccoc4)N2[C@@H]1O)C3`, the IC50 [1] is reported as 5 µM, the Activity [11] is reported as >90% and the IC50 [9] is reported as 29 nM.

`CC(=O)NC[C@H]1CN(c2ccc(N3CCOCC3)c(F)c2)C(=O)O1` [LINEZOLID] showed an MIC [4] of 1 µg/mL (≈ 2.96 µM).

From ChEMBL document CHEMBL5149998, “Synthetic access to thiolane-based therapeutics and biological activity studies” (Eur J Med Chem, 2021)
